According to publication PMC11460631, “Inhibition of transient receptor potential vanilloid 3 channels by antimalarial hydroxychloroquine alleviates TRPV3-dependent dermatitis” (The Journal of Biological Chemistry, 2024):

Assays:
mTRPV1 = biological target: T1, mTRPV1 (Mus musculus, UniProt Q704Y3); experiment: Whole-cell current recordings, mTRPV1; format: cell-based, murine; settings: 100 μM HCQ; current activated by 5 μM capsaicin
T1 construct: YFP or GFP; expressed in transfected cells; host or cells: HEK293T
T1 sequence (Q704Y3 whole entry): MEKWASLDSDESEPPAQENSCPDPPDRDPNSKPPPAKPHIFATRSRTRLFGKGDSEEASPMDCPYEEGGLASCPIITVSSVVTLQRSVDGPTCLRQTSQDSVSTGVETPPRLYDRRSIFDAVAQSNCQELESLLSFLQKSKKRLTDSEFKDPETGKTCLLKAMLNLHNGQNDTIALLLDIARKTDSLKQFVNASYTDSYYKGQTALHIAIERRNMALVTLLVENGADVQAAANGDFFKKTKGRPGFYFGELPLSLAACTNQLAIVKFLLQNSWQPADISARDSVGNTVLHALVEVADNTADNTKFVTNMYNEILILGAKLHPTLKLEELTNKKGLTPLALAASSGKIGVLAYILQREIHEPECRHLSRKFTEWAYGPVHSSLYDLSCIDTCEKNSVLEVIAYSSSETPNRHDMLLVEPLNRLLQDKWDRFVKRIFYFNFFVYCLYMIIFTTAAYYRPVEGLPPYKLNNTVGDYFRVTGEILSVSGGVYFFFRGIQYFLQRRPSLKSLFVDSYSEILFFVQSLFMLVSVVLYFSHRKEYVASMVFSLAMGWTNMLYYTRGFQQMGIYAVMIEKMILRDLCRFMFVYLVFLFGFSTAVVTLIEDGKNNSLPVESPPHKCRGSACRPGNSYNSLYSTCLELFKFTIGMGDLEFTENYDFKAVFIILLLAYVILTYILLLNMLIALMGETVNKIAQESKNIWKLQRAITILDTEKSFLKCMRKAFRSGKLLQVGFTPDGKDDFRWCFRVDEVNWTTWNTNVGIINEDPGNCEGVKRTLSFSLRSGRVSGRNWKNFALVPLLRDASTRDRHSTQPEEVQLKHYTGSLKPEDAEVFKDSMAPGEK
Protocol: To elucidate the specificity of HCQ inhibition on TRPV3, we conducted whole-cell current recordings on other known pruritus-related TRP channels, such as hTRPA1, mTRPV1, mTRPV4, and mTRPM8 (Fig. 3, A and F). […] Because of the relatively larger inhibition of HCQ on mTRPM8 current, we tested the concentration dependence of HCQ on mTRPM8 channels.
HEK293T cells are cultured using Dulbecco's modified Eagle's medium containing 10% fetal bovine serum and 1% penicillin-streptomycin in a cell incubator with 5% CO2 at 37 °C. Plasmids of murine TRPV1, TRPV4, TRPM8, and human TRPV3, TRPA1 are labeled with YFP or GFP as indicators for subsequent electrophysiological recordings. Complementary DNA constructs of ion channels were transiently transfected with Lipofectamine 3000 (Invitrogen). And 12 to 18 h after transient transfection, electrophysiological recordings were performed.
Patch-clamp recordings were carried out with a HEKA EPC10 amplifier controlled by PatchMaster software (HEKA; https://www.heka.com/products/products_main.html#soft_pm) ([36]). Patch pipettes were prepared from borosilicate glass and fire-polished to the resistance of 3 to 8 MΩ by P-97 puller for whole-cell recordings. For single-channel recordings, patch pipettes were fire-polished to a higher resistance of 6 to 10 MΩ. […]

[1] = biological target: T2, TRPV3 L670 alanine mutation (Homo sapiens, UniProt Q8NET8, L670A); experiment: Whole-cell recording of TRPV3 L670 alanine mutant; format: cell-based; settings: 1 mM 2-APB, ± 80 mV
T2 construct: YFP or GFP; expressed in transfected cells; host or cells: HEK293T
T2 sequence (Q8NET8 1-790 L670A): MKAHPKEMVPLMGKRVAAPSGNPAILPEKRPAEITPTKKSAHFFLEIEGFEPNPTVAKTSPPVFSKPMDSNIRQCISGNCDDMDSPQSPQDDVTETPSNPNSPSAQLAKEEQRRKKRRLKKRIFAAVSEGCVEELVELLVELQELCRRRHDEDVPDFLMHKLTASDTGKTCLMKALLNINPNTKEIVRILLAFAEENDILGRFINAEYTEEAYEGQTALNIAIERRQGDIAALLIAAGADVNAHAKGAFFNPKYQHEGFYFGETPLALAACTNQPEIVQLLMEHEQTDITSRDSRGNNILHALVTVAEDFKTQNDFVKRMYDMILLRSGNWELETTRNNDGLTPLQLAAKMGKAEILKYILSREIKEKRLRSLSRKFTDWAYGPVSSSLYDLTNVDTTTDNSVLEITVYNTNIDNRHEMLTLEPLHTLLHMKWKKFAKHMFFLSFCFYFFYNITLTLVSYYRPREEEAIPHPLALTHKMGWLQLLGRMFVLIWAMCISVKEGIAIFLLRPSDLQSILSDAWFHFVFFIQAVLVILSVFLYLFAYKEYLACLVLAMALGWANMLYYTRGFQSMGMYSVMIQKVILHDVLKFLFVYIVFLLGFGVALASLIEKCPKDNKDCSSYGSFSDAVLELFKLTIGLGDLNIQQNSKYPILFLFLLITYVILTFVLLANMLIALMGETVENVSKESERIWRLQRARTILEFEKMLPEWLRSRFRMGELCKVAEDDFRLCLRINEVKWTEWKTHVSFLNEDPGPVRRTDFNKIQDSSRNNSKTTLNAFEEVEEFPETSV
Text: As we mentioned above, HCQ may act as a pore blocker of TRPV3. To probe the binding configuration of HCQ to TRPV3, we carried out molecular docking using Rosetta suite (https://rosettacommons.org) ([21]) and validated the docking models with point mutations in TRPV3 (Fig. 4A). […] Furthermore, when we introduced L670A to L591A mutant, we also observed a left shift on the concentration–response curve on this double mutant as compared to L591A mutant (Fig. 4H).
Figure 4 Residues of the pore domain are critical for HCQ inhibition on TRPV3.A, left panel, docking model of HCQ to the pore domain of TRPV3 structure (6uw4). Right panels, top view and side view of the HCQ-binding pocket. B-J, representative whole-cell recording of TRPV3 and mutants in response to 1 mM 2-APB, the mixture of 1 mM 2-APB and concentration gradients of HCQ with the holding potential of ± 80 mV. K, concentration–response curves of HCQ in WT TRPV3 and mutants (n = 3–5 cells). L, quantification of the inhibitory ratio of HCQ (100 μM) on WT, L591A, and N671Q. […]
All data from whole-cell recordings were analyzed in Igor Pro (WaveMetrics). IC50 values were determined by fitting the Hill equation to concentration-response relationships. […]

reduction of mTRPV1 current (mTRPV1): 12.37% ± 5.32% | IC50 [1]: 170 ± 40 nM
SMILES: CCN(CCO)CCCC(C)Nc1ccnc2cc(Cl)ccc12 (centres unmarked) [HCQ, hydroxychloroquine]
